# Columns and labels:
# [1] = molecular target: T1, Neuraminidase (Influenza A virus, UniProt B4URF0); assay: Inhibition of Influenza A virus (H1N1) neuraminidase activity
# [2] = molecular target: Neuraminidase (Influenza A virus (A/Memphis/1/1971(H3N2)), UniProt P03471); assay: Inhibition of Influenza A virus (H3N2) neuraminidase activity
# [3] = in vitro; details: chicken, chicken embryo fibroblasts
# [4] = molecular target: T1, Neuraminidase
# [5] = system: Influenza A virus; assay: microbe, parasite or virus in culture; details: MDCK, 48 h
# [6] = molecular target: T1, Neuraminidase; design: species or system A/Babol/36/2005(H3N2)
# [7] = system: Influenza A virus; assay: microbe, parasite or virus in culture; details: A/Puerto Rico/8/1934(H1N1), MDCK, 48 h
# [8] = molecular target: T1, Neuraminidase; design: species or system Influenza A virus (A/California/04/2009(H1N1))
# [9] = in vitro; details: dog, MDCK cells
# [10] = molecular target: T1, Neuraminidase; design: species or system A/Anhui/1/2013(H7N9)
# [11] = in vitro; details: human, plasma
# [12] = in vitro; details: human, plasma; remark: listed apart in the source
# [13] = in vitro; details: human, plasma; remark: listed apart in the source
# [14] = in vitro; details: human, plasma; remark: listed apart in the source
# [15] = in vitro; details: human, plasma; remark: listed apart in the source
# [16] = in vitro; details: human, liver
# [17] = system: Influenza A virus
# [18] = system: Mus musculus; assay: Acute toxicity in Kunming mouse assessed as change in body weight at 0.5 to 1 g/kg, ig; type: organism-based; details: in vivo, po
# [19] = in vitro; details: human, liver microsomes
# [20] = human, plasma, 2 h, 100 µM
# [21] = in vitro; details: human, liver microsomes; remark: listed apart in the source
# [22] = in vitro; details: human, liver microsomes; remark: listed apart in the source
# [23] = in vitro; details: human, liver microsomes; remark: listed apart in the source
# [24] = system: Mus musculus; assay: Acute toxicity in Kunming mouse assessed as mortality at 0.5 to 1 g/kg, ig; type: organism-based; details: in vivo, po
# [25] = Drug level in human liver microsomes treated with Ethyl(3R,4R,5S)-4-acetamido-5-((4-(diethylamino)benzyl)-amino)-3-(pentan-3-yloxy)cyclohex-1-ene-1-carboxylate assessed as compound formation in presence of NADPH by LC/MS/MS analysis; type: ADME, microsome
# [26] = molecular target: T1, Neuraminidase; assay: Inhibition of Influenza A virus SN33 (H1N1) neuraminidase activity using fluorogenic substrate MU-NANA pre-incubated for 30 mins before fluorogenic substrate addition and measured after 1 hr by spectrofluorometry
# [27] = molecular target: Neuraminidase (Influenza A virus (A/Memphis/1/1971(H3N2)), UniProt P03471); assay: Inhibition of Influenza A virus Taiwan/3446/2002 (H3N2) neuraminidase activity using fluorogenic substrate MU-NANA pre-incubated for 30 mins before fluorogenic substrate addition and measured after 1 hr by spectrofluorometry
# [28] = molecular target: Neuraminidase (Influenza A virus (A/Memphis/1/1971(H3N2)), UniProt P03471); assay: Inhibition of Influenza A virus (A/Paris/908/97 (H3N2)) neuraminidase activity by fluorometric assay
# [29] = molecular target: T1, Neuraminidase; assay: Inhibition of Influenza A virus (A/Paris/2590/2009(H1N1)) neuraminidase activity by fluorometric assay
# [30] = Drug metabolism in human liver microsomes assessed as (3R,4R,5S)-4-Acetamido-5-((4(diethylamino)benzyl)amino)-3-(pentan-3-yloxy)cyclohex-1-ene-1-carboxylic acid formation in presence of NADPH by LC/MS/MS analysis; type: ADME, microsome
# Neuraminidase (Influenza A virus (A/Memphis/1/1971(H3N2)), UniProt P03471), sequence (P03471 whole entry): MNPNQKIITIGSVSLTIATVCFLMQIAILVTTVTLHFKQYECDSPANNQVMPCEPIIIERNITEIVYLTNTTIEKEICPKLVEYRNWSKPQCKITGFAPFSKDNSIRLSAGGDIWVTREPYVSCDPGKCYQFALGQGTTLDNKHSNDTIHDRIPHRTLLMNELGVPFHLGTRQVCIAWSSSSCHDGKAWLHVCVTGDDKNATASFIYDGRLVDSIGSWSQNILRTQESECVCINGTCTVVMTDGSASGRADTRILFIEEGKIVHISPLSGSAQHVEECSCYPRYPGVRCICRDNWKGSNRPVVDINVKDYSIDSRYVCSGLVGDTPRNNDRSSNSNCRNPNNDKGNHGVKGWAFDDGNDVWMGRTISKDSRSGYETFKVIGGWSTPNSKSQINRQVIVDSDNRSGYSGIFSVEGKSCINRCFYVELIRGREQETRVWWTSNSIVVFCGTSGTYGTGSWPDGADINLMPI
# T1 sequence (B4URF0 whole entry): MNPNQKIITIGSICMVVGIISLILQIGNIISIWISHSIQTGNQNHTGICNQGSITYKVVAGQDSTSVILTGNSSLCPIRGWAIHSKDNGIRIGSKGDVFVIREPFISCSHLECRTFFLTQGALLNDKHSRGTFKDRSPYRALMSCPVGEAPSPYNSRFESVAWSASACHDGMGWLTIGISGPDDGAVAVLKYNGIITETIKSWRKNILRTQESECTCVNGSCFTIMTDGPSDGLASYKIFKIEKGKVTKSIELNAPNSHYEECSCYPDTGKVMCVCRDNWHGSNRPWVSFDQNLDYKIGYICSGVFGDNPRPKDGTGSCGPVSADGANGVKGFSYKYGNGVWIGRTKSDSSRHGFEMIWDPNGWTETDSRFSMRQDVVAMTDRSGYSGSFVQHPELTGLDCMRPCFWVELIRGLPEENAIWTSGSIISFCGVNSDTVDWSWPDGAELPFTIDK
SMILES,CC50 at 48 h [3] [µM],IC50 [4] [µM],EC50 [5] [µM],IC50 [6] [µM],EC50 [7] [µM],IC50 [8] [µM],CC50 at 48 h [9] [µM],IC50 [10] [µM],further results
CCC(CC)O[C@@H]1C=C(C(=O)O)[C@H](n2cc(C(O)CC)nn2)[C@H](NC(=N)N)[C@H]1NC(C)=O (stereo partly drawn),,,,,,,,,Ki [1]: > 0.1 µM; Ki [2]: 0.004 µM
CCC(CC)O[C@@H]1C=C(C(=O)O)C[C@H](NCc2ccc(NC(C)=O)cc2)[C@H]1NC(C)=O,> 200,,,,,,,,
CCC(CC)O[C@@H]1C=C(C(=O)O)C[C@H](NCc2ccc(N(C)c3ccccc3)cc2)[C@H]1NC(C)=O,> 200,0.00229,25.6,0.00565,1.95,0.0298,> 250,0.0114,
CC(C)[N+](C)(CCOC(=O)C1c2ccccc2Oc2ccccc21)C(C)C [PROPANTHELINE BROMIDE],,,,,,,,,"remaining at 2 h, 100 µM [11]: 1.8%; remaining at 0.5 h, 100 µM [12]: 44.6%; remaining at 10 min, 100 µM [13]: 73.4%; remaining at 0 min, 100 µM [14]: 100%; remaining at 1 h, 100 µM [15]: 16.8%"
CCC(CC)O[C@@H]1C=C(C(=O)O)[C@H](n2cc(C(O)CC)nn2)[C@H](N)[C@H]1NC(C)=O (stereo partly drawn),,,,,,,,,Ki [1]: > 0.1 µM; Ki [2]: 0.02 µM
CCC(CC)O[C@@H]1C=C(C(=O)O)C[C@H](NCc2ccc(N(CC)CC)cc2)[C@H]1NC(C)=O,> 200,0.00035,1.7,0.00105,0.07,0.00055,> 250,0.00179,"CLint scaled at 10 min [16]: < 8.6 mL/min/kg; EC50 [17]: 0.61 µM; remaining at 0.5 h, 100 µM [12]: 120%; remaining at 10 min, 100 µM [13]: 118%; Activity [18]: Non-Toxic; microsomal CLint at 10 min [19]: < 9.6 µL/min/mg; Stability [20]: 120.7%; half-life at 10 min [21]: > 145 min; remaining at 0 min, 100 µM [14]: 100%; remaining at 1 h, 100 µM [15]: 120%; remaining at 1 h [22]: 82.7%; remaining at 1 h [23]: 95.4%; Activity [24]: Non-Toxic; Drug metabolism [25]: Metabolite_Detected"
C[C@]12CC[C@H]3[C@@H](CCC4=CC(=O)CC[C@@]43C)[C@@H]1CC[C@@H]2O [TESTOSTERONE],,,,,,,,,CLint scaled at 10 min [16]: 46.9 mL/min/kg; microsomal CLint at 10 min [19]: 52.1 µL/min/mg; half-life at 10 min [21]: 26.6 min
CC(=O)N[C@H]1[C@H]([C@@H](O)[C@@H](O)CO)OC(C(=O)O)=C[C@@H]1NC(=N)NC(=O)CSc1cccc2ccccc12,,,,,,,,,IC50 [26]: 0.021 µM; IC50 [27]: 0.025 µM
CCC(CC)O[C@@H]1C=C(C(=O)O)C[C@H](NCCCNc2cccc(Cl)c2C)[C@H]1NC(C)=O,,,,,,,,,IC50 [1]: 0.00059 µM; IC50 [2]: 0.031 µM
CCC(CC)O[C@@H]1C=C(C(=O)O)C[C@H](NCc2ccc(-n3cccn3)cc2)[C@H]1NC(C)=O,> 200,0.593,,0.869,,0.297,,9.12,
CC(=O)N[C@H]1[C@H]([C@H](O)[C@H](O)CO)OC(C(=O)O)=C(C/C=C/c2ccc(C)cc2)[C@@H]1O,,,,,,,,,Ki [28]: 219 µM; Ki [29]: 1.7 µM
CCC(CC)O[C@@H]1C=C(C(=O)O)C[C@H](NCc2ccc(N3CCCCC3)cc2)[C@H]1NC(C)=O,> 200,0.0207,,0.0171,,0.0186,,0.0405,
CCC(CC)O[C@@H]1C=C(C(=O)O)C[C@H](NCc2ccc(N(CC)c3ccccc3)cc2)[C@H]1NC(C)=O,> 200,0.56,,0.474,,0.698,,2.59,
CCC(CC)O[C@@H]1C=C(C(=O)O)C[C@H](N)[C@H]1NC(C)=O [OSELTAMIVIR CARBOXYLATE],> 200,,0.9,,0.04,,> 250,,
CC(=O)N[C@H]1[C@H]([C@H](O)[C@H](O)CO)OC(C(=O)O)=C[C@@H]1NC(=N)N [ZANAMIVIR],> 200,,0.27,,0.05,,> 250,,
CCC(CC)O[C@@H]1C=C(C(=O)O)C[C@H](NCc2ccc(N3CCSCC3)cc2)[C@H]1NC(C)=O,> 200,0.0742,19,0.0626,4.4,0.0484,> 250,0.156,
CCC(CC)O[C@@H]1C=C(C(=O)O)C[C@H](NCc2ccc(N(C)C)cc2)[C@H]1NC(C)=O,> 200,0.00574,,0.00411,,0.00409,,0.00841,
CCC(CC)O[C@@H]1C=C(C(=O)O)C[C@H](NCc2ccc(N3CCCC3)cc2)[C@H]1NC(C)=O,> 200,0.00213,2.35,0.00181,0.22,0.00231,> 250,0.00651,
CCOC(=O)C1=C[C@@H](OC(CC)CC)[C@H](NC(C)=O)[C@@H](NCc2ccc(N(CC)CC)cc2)C1,,,,,,,,,CLint scaled at 10 min [16]: 149 mL/min/kg; Drug metabolism [30]: Metabolite_Detected; microsomal CLint at 10 min [19]: 165 µL/min/mg; half-life at 10 min [21]: 8.4 min; remaining at 1 h [22]: 0.6%; remaining at 1 h [23]: 87.1%
O=C(O)Cc1ccccc1Nc1c(Cl)cccc1Cl [DICLOFENAC],,,,,,,,,CLint scaled at 10 min [16]: 101 mL/min/kg; microsomal CLint at 10 min [19]: 112 µL/min/mg; half-life at 10 min [21]: 12.3 min
CCC(CC)O[C@@H]1C=C(C(=O)O)C[C@H](NCc2ccc(-c3cccs3)cc2)[C@H]1NC(C)=O,> 200,,,0.354,,0.0213,,,
CCC(CC)O[C@@H]1C=C(C(=O)O)C[C@H](NCc2ccc(Nc3ccccc3)cc2)[C@H]1NC(C)=O,> 200,0.0274,,0.0311,,0.0667,,0.0942,
CCC(CC)O[C@@H]1C=C(C(=O)O)C[C@H](NCc2ccc(-n3cccc3)cc2)[C@H]1NC(C)=O,> 200,0.504,29,0.327,0.69,0.0593,> 250,1.82,

# Reference: ChEMBL document CHEMBL4145638 (J Med Chem, 2018)
